The values below come from patent publication US8410056B2, “Pro-oxidant anti-cancer compounds” (priority 2006, dated 2013).

The subject of one data set is MDA-MB-453 cells. Briefly: Apoptosis, annexin V-FITC method. Type of data set: cell-based, human. As for the experimental part: Cell culture and treatment. […] Cells were cultured in DMEM with 10% FCS, 100 U/ml penicillin and 100 μg/ml streptomycin at 37° C. in a humidified atmosphere of 5% CO2. Mitochondrial complex I-deficient (Breen and Scheffler 1979; DeFrancesco et al 1976; Scheffler et al 2004) and complex II-deficient cells (Albayrak et al 2003; Oostveen et al 1995) were grown in DMEM with 10% FCS, […] glucose and non-essential amino acids.
At approximately 70% confluency, cells were treated with up to 50 μM α-TOS (Sigma), up to 100 μM 3-BP (Aldrich) or 30 ng/ml of human recombinant tumor necrosis factor-related apoptosis—inducing ligand (TRAIL) (Weber et al, 2002) under normoxic or hypoxic conditions. For hypoxia, cells overlaid with nitrogen-purged medium were placed in a hypoxic chamber pre-flushed extensively with nitrogen. The hypoxic chamber with cells was then placed in the incubator as required. α-TOS was dissolved in ethanol and used such that the final ethanol concentration in cell culture medium was <0.1% (v/v). Stock solutions of 3-BP were prepared in PBS prior to use.
Apoptosis assessment. Apoptosis was quantified using the annexin V-FITC method, which detects phosphatidyl serine externalized in the early phases of apoptosis (Boersma et al, 1996). Briefly, cells were plated at 10^5 per well in 24-well plates and, after an overnight recuperation, treated with α-TOS or 3-BP alone or in combination. Floating and attached cells were harvested, washed with PBS, resuspended in 0.2 ml binding buffer (10 mM Hepes, 140 mM NaCl, 5 mM CaCl2, pH 7.4), incubated for 30 min at 4° C. with 2 μl annexin V-FITC (PharMingen), supplemented with 200 μl of 50 μg/ml propidium iodide (PI; Sigma), and analyzed by flow cytometry (FACScalibur, Becton Dickinson) using channel 1 for annexin V-FITC binding and channel 2 for PI staining. Cell death was quantified as the percentage of cells with increased annexin V binding and PI staining.
RNA interference (RNAi). Short-interfering RNA (siRNA) oligonucleotides with 3′-dTdT overhangs specific for Akt1 were synthesized by Qiagen. The sequences are as follows: target sequence: […] (SEQ ID NO 2); siRNA duplex sequences: sense—r([…] )dTdT (SEQ ID NO 3), antisense—r([…] )dTdT (SEQ ID NO 4). The transfection of cultured MDA-MB-453 cells with siRNA was performed using OligofectAmine (Invitrogen) and OptiMEM according to the manufacturer's instructions. Briefly, cells were allowed to reach 50% confluency and supplemented with […] siRNA pre-incubated with OligofectAmine and overlayed with OptiMEM. Cells were washed 24 h later with PBS, overlayed with complete DMEM and treated as required after an additional 24 h.
Transfection of MDA-MB-453 cells with siRNAs was performed using OligofectAmine and OptiMEM. Briefly, cells were allowed to reach ˜50% confluency and supplemented with 60 pmol/l siRNA pre-incubated with OligofectAmine and overlayed with OptiMEM. Cells were washed 24 h later with PBS, overlaid with complete DMEM, cultured for an additional 24 h, 48 h and transgene expression confirmed using Western blotting before they were used for further experiments.

For data set [1] the following is noted: cited from earlier work.

One may read the pKa as the pH at which an ionisable group is half protonated. Take `Cc1c(C)c2c(c(C)c1OC(=O)CCC(=O)O)CC[C@@](C)(CCC[C@H](C)CCC[C@H](C)CCCC(C)C)O2` [Compound 1, α-tocopheryl succinate]: the apoptosis entry in the data set on MDA-MB-453 cells (MDA-MB-453 (erbB2-high), normoxia or hypoxia) is “sensitive to apoptosis induced by α-TOS under both normoxia and hypoxia”. In the data set with MDA-MB-453 cells (pre-treated with 60 pM Akt1 siRNA for 24 h, then drug 24 h), the “apoptosis after Akt1 knock-down” value is listed as “sensitizes”. Besides, the pKa in data set [1] was less than 6.
